Experimental data published in publication PMC9921063 (Molecules, 2023).
≈ marks a conversion by molar mass, not a printed value.

Key:
[1] = system: Vero cell; assay: In vitro cytotoxicity assay, MTT; assay type: cell-based; settings: mean ± S.D.
Description: (§1) MTT colorimetric technique was carried out for cytotoxicity evaluation according to the methods mentioned in our previously published article. An amount of 96 well plates with complete were used for the culture of the cells. FLUOstar OPTIMA spectrophotometer was applied for colorimetric analysis and in vitro evaluation.

[2] = system: hepatocellular carcinoma cell lines (HepG-2); assay: In vitro anticancer proliferation (cytotoxicity) assay; assay type: cell-based, human; settings: hepatocellular carcinoma cells, mean ± S.D.; for IC50: Homo sapiens, HepG2
Description: (§2) The selected compound was investigated for its cytotoxic properties against HCT-116 and HepG-2 (cancer cell lines of ATCC, Rockville, MD, USA). Vinblastine was applied as reference drug. The assay was conducted according to the methods described by Mossman and our recently published data.

[3] = system: colon carcinoma cells (HCT-116); assay: as above; assay type: cell-based, human; settings: for IC50 HCT-116: mean ± S.D.; for IC50: Homo sapiens, HCT-116, mean ± S.D.
Description: as §2

[4] = system: L. major promastigotes; assay: Antileishmanial assay, promastigotes; assay type: cell-based, Leishmania major; settings: mean ± S.D.; for IC50: Leishmania major
Description: (§3) This assay was carried out according to the methods mentioned in our previously published article. L. major promastigotes were isolated locally from an indoor patient in 2016, liquid nitrogen was used for the preservation of the parasites, and BALB/c mice were used for the maintenance of the parasites and production of L. major amastigotes. Phenol red-free RPMI 1640 medium (Invitrogen, USA) with 10% FBS was used for the culture and in vitro evaluation, while amphotericin B (AmB) was used as reference drug.

[5] = system: L. major amastigotes; assay: Antileishmanial assay, amastigotes; assay type: cell-based, Leishmania major; settings: mean ± S.D.; for IC50: Leishmania major, read-out: Amastigote IC50
Description: as §3

[6] = ABTS radical scavenging assay; settings: antiradical scavenging; mean ± S.D.
Description: (§4) Three methods were used for the assessing antioxidant properties of the selected compounds, which are 2.2-diphenyl-1-picrylhydrazyl (DPPH), 2.2’-azino-bis (3-ethylbenzothiazoline-6-sulphonic acid) (ABTS) radicals scavenging, and β-carotene linoleic acid bleaching assay. […] The control compound was butylated hydroxytoluene (BHT), which is a potent antioxidant.
ABTS radical scavenging activity was conducted by referring to the method of Re et al..
(§5) All the assays used for antioxidant determination (DPPH, ABTS, and β-carotene bleaching assay) were performed simultaneously three times in the same conditions. The results obtained in µM mL^−1 average of the three experiments.

[7] = DPPH radical scavenging activity; settings: antiradical scavenging; mean ± S.D.
Description: as §4
Briefly, various amounts of produced compounds were diluted with ultrapure water after being dissolved in dimethylsulfoxide (DMSO)/water (1/9; v/v) (1, 0.5, 0.250, 0.125, 0.0625, 0.03125 mg mL^−1). The samples were then combined with […] of a 4% (w/v) solution of the DPPH radical in ethanol. The combination was incubated for 30 min. at room temperature and in the dark. Spectrophotometric analysis was used to calculate the scavenging capacity by comparing the decrease in absorbance at 517 nm to a blank.
as §5

[8] = biological target: TyrE (Agaricus bisporus, UniProt C7FF04); assay type: biochemical
Sequence of TyrE (C7FF04 1-392): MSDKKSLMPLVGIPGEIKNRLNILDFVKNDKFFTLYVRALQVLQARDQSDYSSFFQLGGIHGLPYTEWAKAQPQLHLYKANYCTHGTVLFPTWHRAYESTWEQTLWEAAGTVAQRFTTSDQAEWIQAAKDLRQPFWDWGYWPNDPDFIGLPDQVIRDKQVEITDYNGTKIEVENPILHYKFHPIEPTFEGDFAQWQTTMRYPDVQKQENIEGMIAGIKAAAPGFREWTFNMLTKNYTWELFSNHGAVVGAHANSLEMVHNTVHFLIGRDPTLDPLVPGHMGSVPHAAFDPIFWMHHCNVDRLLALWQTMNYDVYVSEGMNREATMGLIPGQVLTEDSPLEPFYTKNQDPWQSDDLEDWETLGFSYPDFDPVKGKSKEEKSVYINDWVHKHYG

[9] = biological target: electric eel AChE (Electrophorus electricus, UniProt O42275); assay: biochemical; assay type: biochemical; settings: mean ± S.D.; for IC50: read-out: AChEI IC50 (converted)
Sequence of electric eel AChE (O42275 24-633): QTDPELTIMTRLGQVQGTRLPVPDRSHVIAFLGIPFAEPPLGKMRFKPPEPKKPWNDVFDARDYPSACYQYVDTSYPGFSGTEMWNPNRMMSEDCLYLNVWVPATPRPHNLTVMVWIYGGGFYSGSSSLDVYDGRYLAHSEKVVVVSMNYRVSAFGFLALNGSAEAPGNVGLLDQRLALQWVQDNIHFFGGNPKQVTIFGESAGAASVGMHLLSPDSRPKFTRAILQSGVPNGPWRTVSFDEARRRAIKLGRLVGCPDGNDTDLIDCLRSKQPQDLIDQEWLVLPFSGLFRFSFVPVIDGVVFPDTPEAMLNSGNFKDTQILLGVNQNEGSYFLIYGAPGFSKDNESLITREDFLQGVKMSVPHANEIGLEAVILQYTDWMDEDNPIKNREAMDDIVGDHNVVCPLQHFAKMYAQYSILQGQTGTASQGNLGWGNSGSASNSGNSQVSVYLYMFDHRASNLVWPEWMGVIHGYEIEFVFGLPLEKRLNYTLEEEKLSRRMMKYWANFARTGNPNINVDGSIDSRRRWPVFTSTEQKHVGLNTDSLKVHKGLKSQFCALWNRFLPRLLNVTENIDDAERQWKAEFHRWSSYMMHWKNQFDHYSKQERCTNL
Description: According to the Ellman et al. published spectrophotometric method of electric eel AChE [47], AChEI activity was measured. Acetylthiocholine iodide (ATCI) was used as the reaction’s substrate, and the antiacetylcholinesterase activity was measured using 5,5’-Dithiobis-(2-nitrobenzoic acid) (DTNB).

[10] = system: T. gondii tachyzoites RH strain; assay: Antitoxoplasmal assay; assay type: cell-based, Toxoplasma gondii; settings: mean ± S.D.; for IC50: Toxoplasma gondii
Description: This assay was carried out according to the methods mentioned in our previously published article. Vero cells line (ATCC® CCL81™, USA) were used for the serial passage and cultivation of T. gondii tachyzoites RH strain, complete RPMI 1640 medium with heat-inactivated 10% FBS was used for the culture and in vitro evaluation, while atovaquone (ATO) was used as reference drug. The results were expressed in IC50 of three independent readings, followed by the selectivity index (SI) calculation by dividing CC50 over IC50 of the same compound [56].

[11] = β-Carotene linoleic acid bleaching assay; settings: β-carotene bleaching test; mean ± S.D.
Description: as §4
β-Carotene bleaching test was conducted following the method described by Pratt’s.
as §5

[12] = system: S. typhimurium; assay: Minimum inhibitory concentration (MIC); assay type: cell-based, Salmonella typhimurium
Description: (§6) Microorganisms, media and growth conditions, agar well diffusion method for inhibition zone determination (IZ) and minimum inhibitory concentration (MIC) were performed according to the literature work.
(§7) The synthesized compounds were examined in vitro for their antimicrobial activity against Six standard microorganisms of ATCC, two Gram positive bacteria S. aureus and Listeria monocytogenes, three Gram negative bacteria Esherichia coli, Pseudomonas aeruginosa and Salmonella typhimurium and the fungus C. albicans. Bacteria were cultured in Luria-Bertani (LB) medium, while Sabouraud agar was used for culturing C. albicans and the assay conducted according to our previous techniques. The results were the average of 3 readings.

[13] = system: C. albicans; assay: Minimum inhibitory concentration (MIC); assay type: cell-based
Description: as §6, §7

[14] = system: S. aureus; assay: Minimum inhibitory concentration (MIC); assay type: cell-based
Description: as §6, §7

[15] = system: L. monocytogenes; assay: Minimum inhibitory concentration (MIC); assay type: cell-based, Listeria monocytogenes
Description: as §6, §7

[16] = system: all examined microorganisms; assay: Antimicrobial activity, summary over all examined microorganisms; assay type: cell-based; settings: all of the examined indicator organisms
Description: as §6, §7

[17] = In vitro cytotoxicity assay, MTT; assay type: cell-based; settings: African green monkey, Vero cells, mean ± S.D., read-out: CC50 Toxicity (Vero Cell)
Description: as §1

Compound	CC50 Toxicity (Vero Cell) [1] [µM mL^−1]	IC50 HepG-2 [2] [µM mL^−1]	IC50 HCT-116 [3] [µM mL^−1]	Promastigotes IC50 [4] [µM mL^−1]	Amastigote IC50 [5] [µM mL^−1]	ABTS IC50 [6] [µM mL^−1]	DPPH IC50 [7] [µM mL^−1]	TyrEI IC50 [8] [µM mL^−1]	Toxoplasma IC50 [10] [µM mL^−1]	β-Carotene IC50 [11] [µM mL^−1]	IC50 [2] [µg/mL]	IC50 [3] [µg/mL]	also measured
5,6-dimethyl-1,3-(3,5)-dimethyl-4-methylbenzyl)-2,3-dihydro-1H-benzo[d]imidazolium bromide [Compound 2d]	1.7 ± 0.3	26.82 ± 3.6	16.04 ± 2.9	1.9 ± 0.3	1.4 ± 0.2	55.21 ± 7.4	74.25 ± 11.6	43.25 ± 6.8	3.8 ± 0.5	360.90 ± 40.8			AChEI IC50 [9]: 22.27 ± 3.1 µM mL^−1
5,6-Dimethyl-[1,3-(2,3,4,5,6-pentamethyl-2,4,6-trimethyl)-benzimidazol-2-ylidene](p-cymene) ruthenium(II) chloride [Compound 3a]	1.2 ± 0.3	9.21 ± 1.3	4.12 ± 0.6	0.45 ± 0.07	2.4 ± 0.4	41.78 ± 7.3	61.25 ± 10.3	50.75 ± 8.3	1.3 ± 0.2	401.12 ± 66.5			
5,6-Dimethyl-[1,3-(2,3,4,5,6-pentamethyl-2,4,6-trimethyl)-benzimidazol-2-ylidene](p-cymene) ruthenium(II) chloride [Compound 3b]	1.3 ± 0.3	31.40 ± 4.8	19.45 ± 3.2	0.74 ± 0.08	1.1 ± 0.2	32.05 ± 4.2	43.05 ± 5.7	19.88 ± 2.4	1.4 ± 0.2	225.45 ± 31.5			MIC [12]: 3.9 µM mL^−1; MIC [13]: 1.25 µM mL^−1; MIC [14]: 3.9 µM mL^−1; MIC [15]: 15.6 µM mL^−1; Inhibition of the examined indicator organisms [16]: inhibited
CC[C@]1(O)C[C@@H]2CN(CCc3c([nH]c4ccccc34)[C@@](C(=O)OC)(c3cc4c(cc3OC)N(C)[C@H]3[C@@](O)(C(=O)OC)[C@H](OC(C)=O)[C@]5(CC)C=CCN6CC[C@]43[C@@H]65)C2)C1 [vinblastine, reference compound]											6.05 (≈ 7.46 µM)	3.83 (≈ 4.72 µM)	
5,6-Dimethyl-[1,3-(4-(tert-butyl)-4-methyl)-benzimidazol-2-ylidene] (p-cymene) ruthenium (II) chloride [Compound 3c]	1.9 ± 0.4	12.73 ± 1.8	8.45 ± 1.2	0.37 ± 0.06	4.2 ± 0.8	45.04 ± 6.6	65.49 ± 11.2	38.17 ± 5.5	1.5 ± 0.3	374.87 ± 55.7			
5,6-dimethyl-1,3-bis(2,3,4,5,6-pentamethylbenzyl)-1H-benzo[d]imidazol-3-ium bromide [Compound 2a]	1.2 ± 0.2	11.75 ± 2.1	7.76 ± 1.1	3.2 ± 0.5	1.1 ± 0.1	39.12 ± 5.9	58.27 ± 7.4	45.05 ± 7.3	8.4 ± 1.0	395.75 ± 51.6			AChEI IC50 [9]: 18.38 ± 2.7 µM mL^−1
Cc1cc(C)c(Cn2c[n+](Cc3c(C)cc(C)cc3C)c3cc(C)c(C)cc32)c(C)c1.[Br-] [Compound 2b, 5,6-dimethyl-1,3-bis(2,4,6-trimethylbenzyl)-1H-benzo[d]imidazol-3-ium bromide]						38.14 ± 4.9	63.45 ± 10.1			325.55 ± 48.7	17.4 ± 2.7	13.6 ± 2	CC50 [17]: 1.1 ± 0.1 µg/mL; IC50 [4]: 2.2 ± 0.3 µg/mL; IC50 [5]: 0.3 ± 0.04 µg/mL; IC50 [9]: 27.3 µM; IC50 [10]: 3.7 ± 0.5 µg/mL
Cc1cc(C(C)(C)C)c(O)c(C(C)(C)C)c1 [BHT, butylated hydroxytoluene, reference compound]						17.41 ± 2.9	31.55 ± 4.8			89.55 ± 13.3			
Cc1ccc(C[n+]2cn(Cc3ccc(C(C)(C)C)cc3)c3cc(C)c(C)cc32)cc1 [Compound 2c, 5,6-dimethyl-1,3-((4-(tert-butyl)-4-methyl-benzyl)-1H-benzo[d]imidazol-3-ium bromide]						51.27 ± 8.6	70.23 ± 12.0			348.70 ± 52.1	20.6 ± 3.3	15.4 ± 2.6	CC50 [17]: 2.9 ± 0.4 µg/mL; IC50 [4]: 5.8 ± 0.9 µg/mL; IC50 [5]: 1.7 ± 0.2 µg/mL; IC50 [9]: 51.6 µM; IC50 [10]: 2.1 ± 0.3 µg/mL
